Experimental data reported in the supplement of paper PMC10307832.

Experiments:
Experiment in all cases: relative viability (nuclei count vs DMSO), 5 days (fraction); higher = more cells survive
FG-4592 + Dasatinib = compound: Cc1nc(C(=O)NCC(=O)O)c(O)c2ccc(Oc3ccccc3)cc12 [FG-4592] + Cc1nc(Nc2ncc(C(=O)Nc3c(C)cccc3Cl)s2)cc(N2CCN(CCO)CC2)n1 [Dasatinib] (partner 0.075 µM)
How it was run: (§1)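 Each reported value is a median over duplicate plates. It expresses relative viability: treated-well nuclei count divided by vehicle-well nuclei count. Lung cancer cell lines in 1536-well plates were dosed by pin tool a day after seeding, alone with one drug or with a fixed anchor-drug dose plus five library-drug doses (not always all listed) in √10 steps, and nuclei were counted after 5 days.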

IU1-47 + Tozasertib = compound: CC1=CC(=C(N1C2=CC=C(C=C2)Cl)C)C(=O)CN3CCCCC3 [IU1-47] + Cc1cc(Nc2cc(N3CCN(C)CC3)nc(Sc3ccc(NC(=O)C4CC4)cc3)n2)n[nH]1 [Tozasertib] (partner 0.1 µM)
How it was run: as §1

FG-4592 + Pemetrexed = compound: Cc1nc(C(=O)NCC(=O)O)c(O)c2ccc(Oc3ccccc3)cc12 [FG-4592] + Nc1nc2[nH]cc(CCc3ccc(C(=O)N[C@@H](CCC(=O)O)C(=O)O)cc3)c2c(=O)[nH]1 [Pemetrexed] (partner 0.2 µM)
How it was run: as §1

FG-4592 + OSI-027 = compound: Cc1nc(C(=O)NCC(=O)O)c(O)c2ccc(Oc3ccccc3)cc12 [FG-4592] + COc1cccc2cc(-c3nc([C@H]4CC[C@H](C(=O)O)CC4)n4ncnc(N)c34)[nH]c12 [OSI-027] (partner 0.5 µM)
How it was run: as §1

UMC-11 was tested, and the relative viability (FG-4592 + Dasatinib; first compound 0.08 µM) was 0.439, the relative viability (FG-4592 + Dasatinib; first compound 0.253 µM) was 0.46 and the relative viability (FG-4592 + Dasatinib; first compound 0.8 µM) was 0.447. The relative viability (FG-4592 + Dasatinib; first compound 2.53 µM) was 0.417, the relative viability (FG-4592 + Dasatinib; first compound 8 µM) was 0.493 and the relative viability (IU1-47 + Tozasertib; first compound 0.08 µM) was 0.215. The relative viability (IU1-47 + Tozasertib; first compound 0.253 µM) was 0.209, the relative viability (IU1-47 + Tozasertib; first compound 0.8 µM) was 0.201 and the relative viability (IU1-47 + Tozasertib; first compound 2.53 µM) was 0.218. It also gave a relative viability (IU1-47 + Tozasertib; first compound 8 µM) of 0.214, a relative viability (FG-4592 + Pemetrexed; first compound 0.08 µM) of 0.738 and a relative viability (FG-4592 + Pemetrexed; first compound 0.253 µM) of 0.867. The relative viability (FG-4592 + Pemetrexed; first compound 0.8 µM) was 0.843, the relative viability (FG-4592 + Pemetrexed; first compound 2.53 µM) was 0.791 and the relative viability (FG-4592 + Pemetrexed; first compound 8 µM) was 0.688. The relative viability (FG-4592 + OSI-027; first compound 0.08 µM) was 0.466, the relative viability (FG-4592 + OSI-027; first compound 0.253 µM) was 0.529 and the relative viability (FG-4592 + OSI-027; first compound 0.8 µM) was 0.498. The relative viability (FG-4592 + OSI-027; first compound 2.53 µM) was 0.461 and the relative viability (FG-4592 + OSI-027; first compound 8 µM) was 0.441.
